The subject of assay [1] is Pcc. The class given is cell-based, Pectobacterium carotovorum subsp. carotovorum.
Assay [2] deals with Ech. As to conditions: 48 h.
Assay [3] deals with Pcc. As to conditions: 48 h.
The subject of assay [4] is Atu C58C1. The settings on record: Table 4, rich medium, up to 32 μg/ml; for MIC: 48 h, no visible growth; for MBC: spotted on rich agar 48 h, no colony.
In assay [5] the test system is Xcc Xcc17. As to conditions: Table 4, rich medium, up to 32 μg/ml; for MIC: 48 h, no visible growth; for MBC: spotted on rich agar 48 h, no colony.

Where a SMILES comes first, the peptide text is derived from it. The star is where a group is joined. Myristoyl = CCCCCCCCCCCCCC(=O)*

Consider `CCCCCCCCCCCCCC(=O)N[C@@H](Cc1c[nH]c2ccccc12)C(=O)N[C@@H](CCCCN)C(=O)N[C@@H](CCCCN)C(=O)N[C@@H](CC(C)C)C(=O)N[C@@H](CCCCN)C(=O)N[C@@H](CCCCN)C(=O)N[C@@H](CC(C)C)C(=O)N[C@@H](CC(C)C)C(=O)N[C@@H](CCCCN)C(=O)N[C@@H](CCCCN)C(=O)N[C@@H](CC(C)C)C(=O)N[C@@H](CCCCN)C(=O)N[C@@H](CCCCN)C(=O)N[C@@H](CC(C)C)C(N)=O` [pepD2M] (Myristoyl-WKKLKKLLKKLKKL-NH2), for which the “membranolytic effect (SYTOX Green staining)” value (“membranolytic effect” below) in assay [1] is recorded as “significant membranolytic effect”.
Take Ac-WKKIKKIIKKIKKI-NH2 [pepI2]: in assay [2], the minimal bactericidal concentration (MBC) was 16 µg/mL and the MIC was 16 µg/mL. Further, in assay [3], the MBC turned out to be 2 µg/mL and the MIC was 2 µg/mL.
Turning to Ac-WKKLKKLLKKL-NH2 [pepD3], the “membranolytic effect” value in assay [1] is “significant membranolytic effect”. In addition, the MIC in assay [4] and in assay [5] was 2 µg/mL throughout. Further, the MBC amounted to 2 µg/mL in assay [4], 16 µg/mL in assay [3] and 2 µg/mL in assay [5].
Turning to Ac-WKKLKKLLKKLKKL-NH2 [pepD2], the “membranolytic effect” value in assay [1] is recorded as “significant membranolytic effect”. The MIC in assay [4] turned out to be 2 µg/mL; in assay [5] it was 1 µg/mL. The figures for the MBC in assay [4], in assay [3] and in assay [5] were 2 µg/mL, 16 µg/mL and 1 µg/mL, respectively.

In general, MBC refers to the smallest concentration meeting the test's criterion for killing. As usually defined, the MIC is the lowest concentration found to suppress growth.

The record behind these values is publication PMC8514817, “De Novo Design of Antimicrobial Peptides With a Special Charge Pattern and Their Application in Combating Plant Pathogens” (Frontiers in Plant Science, 2021).
